Results published in ChEMBL document CHEMBL1201862, “PubChem BioAssay data set” (2004).
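Five concentrations, 48 hours, 96-well plates. GI50 = concentration required for 50% inhibition of growth.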 The source made the active and inactive calls. No stated cut-off is given here; in the data, active = GI50 up to about 1.1 µM and inactive = higher. Peptide text beside a SMILES is read from it. * marks the point of attachment. Cbz = O=C(OCc1ccccc1)*; CH2Cl = ClC*

Legend:
Assay in all cases: NCI tumour cell line growth inhibition, 48 h
[1] = tested on: 786-0
[2] = tested on: ACHN
[3] = tested on: CCRF-CEM
[4] = tested on: HOP-62
[5] = tested on: Hs-578T
[6] = tested on: IGROV-1
[7] = tested on: KM12
[8] = tested on: M14
[9] = tested on: NCI-H226
[10] = tested on: NCI-H460
[11] = tested on: NCI/ADR-RES
[12] = tested on: OVCAR-3
[13] = tested on: OVCAR-4
[14] = tested on: RPMI-8226
[15] = tested on: SN12C
[16] = tested on: T47D
[17] = tested on: TK-10
[18] = tested on: UACC-257
[19] = tested on: UACC-62
[20] = tested on: UO-31

SMILES	GI50 [1]	GI50 [2]	GI50 [3]	GI50 [4]	GI50 [5]	GI50 [6]	GI50 [7]	GI50 [8]	GI50 [9]	GI50 [10]	GI50 [11]	GI50 [12]	GI50 [13]	GI50 [14]	GI50 [15]	GI50 [16]	GI50 [17]	GI50 [18]	GI50 [19]	GI50 [20]
Cc1nc2ccccc2[nH]/c1=N/Nc1ccccc1	25.2 µM (inactive)	30.5 µM (inactive)	4.23 µM (inactive)	23.3 µM (inactive)	31.1 µM (inactive)	3.73 µM (inactive)	14.5 µM (inactive)	20.2 µM (inactive)	18.3 µM (inactive)	35.6 µM (inactive)	15 µM (inactive)	14 µM (inactive)	9.66 µM (inactive)	8.2 µM (inactive)	26.4 µM (inactive)	2.11 µM (inactive)	> 100 µM (inactive)	57.9 µM (inactive)	16.3 µM (inactive)	18.8 µM (inactive)
COc1cc(/C=C/C=C2\CC/C(=C\C=C\c3ccc(O)c(OC)c3)C2=O)ccc1O	> 100 µM (inactive)	> 100 µM (inactive)	0.305 µM (active)	> 100 µM (inactive)	> 100 µM (inactive)	> 100 µM (inactive)	> 100 µM (inactive)	> 100 µM (inactive)	> 100 µM (inactive)	> 100 µM (inactive)	> 100 µM (inactive)	> 100 µM (inactive)	> 60.1 µM (inactive)	57.3 µM (inactive)	> 100 µM (inactive)	> 100 µM (inactive)	> 100 µM (inactive)	> 100 µM (inactive)	> 100 µM (inactive)	> 82 µM (inactive)
CC(C)CC(NC(=O)OCc1ccccc1)C(=O)NC(Cc1ccccc1)C(=O)CCl (stereo not drawn) (Cbz-Leu-Phe-CH2Cl; configuration not given here)	1.66 µM (inactive)	4.25 µM (inactive)	0.204 µM (active)	16.1 µM (inactive)	4.62 µM (inactive)	2 µM (inactive)	9.77 µM (inactive)	1.79 µM (inactive)	1.91 µM (inactive)	6.5 µM (inactive)	2.44 µM (inactive)	3.72 µM (inactive)	2.08 µM (inactive)	1.61 µM (inactive)	1.77 µM (inactive)	2.21 µM (inactive)	1.82 µM (inactive)	4 µM (inactive)	2.71 µM (inactive)	6.46 µM (inactive)
Cc1c(-c2ccccc2)cc(O)c2nc3ccccc3n12	29 µM (inactive)	21.6 µM (inactive)	17 µM (inactive)	21.1 µM (inactive)	55.1 µM (inactive)	39.5 µM (inactive)	15.6 µM (inactive)	> 100 µM (inactive)	> 100 µM (inactive)	6.31 µM (inactive)	7 µM (inactive)	> 100 µM (inactive)	9.68 µM (inactive)	7.43 µM (inactive)	> 100 µM (inactive)	> 100 µM (inactive)	> 100 µM (inactive)	> 100 µM (inactive)	11 µM (inactive)	9.25 µM (inactive)
CCOC(=O)NC(Nc1ccc(F)cc1)(C(=O)OCC)C(F)(F)F (centres undefined)	> 100 µM (inactive)	2.62 µM (inactive)	3.28 µM (inactive)	> 100 µM (inactive)	> 100 µM (inactive)	–	0.556 µM (active)	0.156 µM (active)	> 100 µM (inactive)	> 21.7 µM (inactive)	12 µM (inactive)	> 100 µM (inactive)	> 50.8 µM (inactive)	2.65 µM (inactive)	> 100 µM (inactive)	3.72 µM (inactive)	> 24.7 µM (inactive)	3.47 µM (inactive)	0.121 µM (active)	8.59 µM (inactive)
